{"source": "paper PMC13586173", "about": "“Synthetic cannabinoid receptor agonists inhibit the cardiac voltage-gated potassium channel hERG” (Acta Pharmacologica Sinica, 2026)", "key": {"hERG (KV11.1)": {"molecular_target": "hERG (KV11.1) (Homo sapiens, UniProt Q12809)", "sequence (Q12809 whole entry)": "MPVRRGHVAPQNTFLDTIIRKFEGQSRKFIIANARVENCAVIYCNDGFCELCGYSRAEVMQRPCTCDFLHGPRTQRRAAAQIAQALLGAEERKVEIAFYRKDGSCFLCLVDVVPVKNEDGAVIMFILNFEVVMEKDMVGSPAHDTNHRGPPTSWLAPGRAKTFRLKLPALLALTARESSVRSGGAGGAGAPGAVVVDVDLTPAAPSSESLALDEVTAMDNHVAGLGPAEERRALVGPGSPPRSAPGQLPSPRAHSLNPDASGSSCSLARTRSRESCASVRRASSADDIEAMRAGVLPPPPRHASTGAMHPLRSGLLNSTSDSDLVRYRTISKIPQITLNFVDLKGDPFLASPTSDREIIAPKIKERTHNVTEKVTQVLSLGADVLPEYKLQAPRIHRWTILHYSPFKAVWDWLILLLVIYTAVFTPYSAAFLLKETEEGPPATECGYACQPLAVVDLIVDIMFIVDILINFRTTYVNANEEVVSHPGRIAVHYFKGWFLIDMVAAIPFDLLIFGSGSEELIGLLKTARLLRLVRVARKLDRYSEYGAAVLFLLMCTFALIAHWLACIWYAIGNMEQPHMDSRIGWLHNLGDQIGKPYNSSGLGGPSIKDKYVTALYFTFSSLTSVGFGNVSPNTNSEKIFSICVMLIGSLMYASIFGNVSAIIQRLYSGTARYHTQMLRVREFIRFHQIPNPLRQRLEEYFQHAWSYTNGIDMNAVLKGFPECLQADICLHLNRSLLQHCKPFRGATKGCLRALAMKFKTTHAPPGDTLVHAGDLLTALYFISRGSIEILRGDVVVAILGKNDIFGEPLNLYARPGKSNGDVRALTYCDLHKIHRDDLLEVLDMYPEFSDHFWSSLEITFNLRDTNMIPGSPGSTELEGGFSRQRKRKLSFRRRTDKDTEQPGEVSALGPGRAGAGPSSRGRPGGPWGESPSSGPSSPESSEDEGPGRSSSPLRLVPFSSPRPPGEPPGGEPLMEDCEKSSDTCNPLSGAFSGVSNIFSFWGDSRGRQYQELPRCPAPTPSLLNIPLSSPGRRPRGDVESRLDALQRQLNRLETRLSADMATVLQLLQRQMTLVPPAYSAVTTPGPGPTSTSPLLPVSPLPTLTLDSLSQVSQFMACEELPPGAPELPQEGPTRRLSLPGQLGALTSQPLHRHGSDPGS", "assay": "Automated planar patch-clamp (APC, QPatch II 48), voltage-ladder protocol, CHO cells stably expressing human hERG", "from_the_text": "To assess the effect of a large set of SCRAs on hERG (see SI Table I and SI Fig. S1 for a list of the 36 included SCRAs and corresponding structures), we used the automated planar patch-clamp (APC) technique on mammalian Chinese hamster ovary (CHO) cells stably expressing human hERG. […] We employed a voltage-ladder protocol to obtain information on SCRA effects on the channel’s voltage dependence of activation (V50) and maximal conductance (Gmax) (both determined from Boltzmann fits of the instantaneous tail currents; see Methods for details).\nStably expressing cell lines “CHO-hERG DUO” (here referred to as hERG; gene: KCNH2) and “CHO-KVLQT1/mink” (here referred to as KV7.1/KCNE1; gene: KCNQ1/KCNE1), (B’SYS GmBH, Witterswil, Switzerland) were used to study whole-cell K^+ currents on a QPatch II 48 APC system (Sophion Bioscience A/S, Ballerup, Denmark). Cell culture and passaging were performed in accordance with standard operating procedures. Cells were harvested in serum-free medium with Detachin^TM (Genlantis, CA, USA) immediately prior to experiments. For MPC on transient cell lines, CHO-K1 CCL-61 cells (ATCC, Manassas, VA, USA) were cultured in Ham’s F-12 medium supplemented with 10% fetal bovine serum (FBS) and 100 U/mL penicillin–100 µg/mL streptomycin (Gibco, Thermo Fisher Scientific, Waltham, MA, USA). Transfection was carried out using JetOPTIMUS® reagent (Polyplus, Strasbourg, France) according to the manufacturer’s protocol. Briefly, 80,000 cells were seeded per well in a 12-well plate and transfected with 300 ng of pcDNA3-GFP plasmid, 700 ng of pcDNA3-hERG plasmid with either the wild-type or mutant channels (S624A, S649A, or Y652A), and […] of JetOPTIMUS. After 8 h, cells were detached and reseeded at a density of 30,000 cells per well onto several poly-D-lysine-coated glass coverslips placed in a 12-well plate. For the CB1 receptor activity assay, the AequoScreen® recombinant Chinese hamster ovary (CHO) K1 cell line, stably expressing the human CB1 receptor (ES-110-A), was used (Revvity, Sollentuna, Sweden).\nAutomated patch-clamp recordings were performed at 22 °C. Freshly harvested cell suspensions (2–3 million cells/mL) were prepared for experiments by the QPatch II 48 automated cell preparation unit. Cells were centrifuged for 150 s at 150 × g and washed twice with the extracellular recording solution. Cells were handled by the integrated pipetting robot and added to the 48 experiment sites on the planar patch-clamp consumable QPlate. Each experiment site contained an individual pair of recording electrodes and a silicon/glass biochip embedded in the flow channels. Single-cell patch recordings (n = 1 is defined as one single-cell patch) and population patch recordings (up to 10 cells per well, n = 1 is defined as one population patch) were performed for hERG and for KV7.1/KCNE1, respectively. Cells were applied, positioned and sealed to the patch holes by a mild suction protocol; whole-cell access was then achieved by a stronger suction pulse.\nThe intracellular solution contained (in mM): 100 KCl, 4.3 CaCl2, 1.4 MgCl2, 25/10 KOH/EGTA, 24 KF, 10 HEPES, and 4 Mg-ATP (hERG) or 4 Na-ATP (KV7.1/KCNE1). […] The compounds were pre-diluted in DMSO, and the final concentration of DMSO (0.3%) was equal in all recording solutions to control for vehicle effects. The compounds made no contact with plastics following dilution in extracellular solution.\nAn overview of experimental conditions is provided in SI Table VII, Square voltage pulses in a voltage ladder protocol were used to study current/voltage (I(V)) relationships. Each voltage protocol was first run three times in the presence of vehicle (extracellular solution supplemented with 0.3% DMSO), the 3rd serving as the baseline. Voltage protocols were repeated in the presence of 4 cumulatively rising concentrations of test compound, followed by application of vehicle for recovery."}, "human CB1 receptor": {"molecular_target": "T1, human CB1 receptor (Homo sapiens, UniProt P21554)", "T1 construct": "host or cells: CHO-K1 stably expressing CB1, apoaequorin and Gα16", "T1 sequence (P21554 whole entry)": "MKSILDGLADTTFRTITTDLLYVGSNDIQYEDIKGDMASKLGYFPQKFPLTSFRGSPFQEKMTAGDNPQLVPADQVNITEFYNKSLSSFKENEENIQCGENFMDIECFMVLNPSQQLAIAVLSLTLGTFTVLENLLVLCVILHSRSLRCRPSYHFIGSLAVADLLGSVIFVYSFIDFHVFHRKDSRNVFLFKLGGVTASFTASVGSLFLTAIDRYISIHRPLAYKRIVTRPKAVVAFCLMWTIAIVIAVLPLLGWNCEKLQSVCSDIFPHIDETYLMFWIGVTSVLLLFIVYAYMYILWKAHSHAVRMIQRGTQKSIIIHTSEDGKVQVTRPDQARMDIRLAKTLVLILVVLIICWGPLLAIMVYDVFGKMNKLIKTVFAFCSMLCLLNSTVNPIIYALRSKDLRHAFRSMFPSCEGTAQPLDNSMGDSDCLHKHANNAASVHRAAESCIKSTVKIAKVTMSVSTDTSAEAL", "assay": "AequoScreen intracellular calcium release assay, CHO-K1 cells stably expressing CB1", "assay_type": "cell-based", "conditions": "n ≥ 3 (JWH-030 n = 2)"}, "KV7.1/KCNE1": {"molecular_target": "KV7.1/KCNE1 (Homo sapiens, UniProt P51787)", "sequence (P51787 whole entry)": "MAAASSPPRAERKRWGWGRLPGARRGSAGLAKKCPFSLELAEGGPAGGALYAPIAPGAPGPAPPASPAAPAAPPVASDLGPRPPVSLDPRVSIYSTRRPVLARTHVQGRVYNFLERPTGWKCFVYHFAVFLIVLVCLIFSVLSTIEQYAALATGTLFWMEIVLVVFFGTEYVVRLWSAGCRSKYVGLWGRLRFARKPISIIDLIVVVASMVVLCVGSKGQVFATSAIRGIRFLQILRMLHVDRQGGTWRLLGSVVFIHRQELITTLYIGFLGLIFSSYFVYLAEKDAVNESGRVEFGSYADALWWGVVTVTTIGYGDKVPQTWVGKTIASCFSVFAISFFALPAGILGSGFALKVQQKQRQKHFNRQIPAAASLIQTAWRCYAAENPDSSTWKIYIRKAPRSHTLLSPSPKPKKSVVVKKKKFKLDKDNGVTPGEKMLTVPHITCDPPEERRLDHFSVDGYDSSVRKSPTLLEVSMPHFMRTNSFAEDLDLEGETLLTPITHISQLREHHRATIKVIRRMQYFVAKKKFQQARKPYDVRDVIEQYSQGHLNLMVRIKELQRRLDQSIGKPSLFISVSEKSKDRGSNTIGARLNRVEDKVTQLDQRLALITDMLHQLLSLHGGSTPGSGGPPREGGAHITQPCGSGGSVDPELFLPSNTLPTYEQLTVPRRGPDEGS", "assay": "Automated patch-clamp (APC, population patch), CHO cells stably expressing human KV7.1/KCNE1", "assay_type": "cell-based", "procedure": "Both hERG and KV7.1/KCNE1 contribute to cardiomyocyte repolarization (Fig. 1g). Inhibition of KV7.1/KCNE1 alone can be proarrhythmic. Moreover, under conditions with impaired hERG function, upregulation of KV7.1/KCNE1 has been proposed to partially compensate for the loss of hERG [38, 39]. […] To assess if SCRAs also affect KV7.1/KCNE1, we used mammalian CHO cells stably expressing human KV7.1/KCNE1. […] At 10 µM, 7 of the SCRAs caused a significant positive shift in V50 (Fig. 5e), with the largest shift induced by MDMB-[…] (ΔV50 = +10.3 ± 1.6 mV).\nAutomated patch-clamp recordings were performed at 22 °C.\nFor the KV7.1/KCNE1 voltage ladder protocol (SI Table VII) the solutions were present for 60 s before recording started. KV7.1/KCNE1 cells were kept at a holding voltage of −90 mV, with brief hyperpolarizing steps to −100 mV for 540 ms (to calculate ohmic leakage). […] The time between compound application and the first voltage protocol was 60 s. Time between sweeps was 15 s. The voltage ladder protocol was executed every 220 s.\nFor Gmax (rel.), N was set to –1. For ΔV50, N was set to 1."}, "hERG": {"system": "hERG", "conditions": "cited from earlier work"}, "[1]": {"conditions": "rats; cited from earlier work"}, "[2]": {"conditions": "experimentally observed effect of 10 µM, used in ORd simulation"}}, "data": [{"smiles": "CCCCCn1ccc(C(=O)c2cccc3ccccc23)c1", "note": "[JWH-030]", "values": [{"measurement": "IC50", "setting": "hERG (KV11.1)", "value": 23.1, "unit": "µM"}, {"measurement": "hERG channel Efficacy (max reduction in Gmax) Gmin", "setting": "hERG (KV11.1); best fit, 1 = no reduction of Gmax, 0 = complete reduction, APC, 22 °C", "value": 0.00}, {"measurement": "remaining IKr (hERG Gmax)", "setting": "hERG (KV11.1); [2]", "value": 74, "unit": "%"}, {"measurement": "EC50", "setting": "human CB1 receptor; CB1 receptor Potency EC50, normalized to median EC50 of JWH-018", "value": 0.291, "unit": "µM"}, {"measurement": "CB1 receptor Efficacy Emax", "setting": "human CB1 receptor; normalized to maximum of JWH-018", "value": 76.5, "unit": "% JWH-018"}, {"measurement": "IC50", "setting": "KV7.1/KCNE1", "value": 12.2, "unit": "µM"}, {"measurement": "effect on KV7.1/KCNE1 (in words)", "setting": "KV7.1/KCNE1; APC", "value": "largest reduction in Gmax"}, {"measurement": "KV7.1/KCNE1 channel Efficacy (max reduction in Gmax) Gmin", "setting": "KV7.1/KCNE1; best fit, 1 = no reduction of Gmax, 0 = complete reduction", "value": 0}, {"measurement": "remaining IKs (KV7.1/KCNE1 Gmax)", "setting": "KV7.1/KCNE1; [2]", "value": 49, "unit": "%"}, {"measurement": "hERG inhibition (in words)", "setting": "hERG", "value": "inhibits the voltage-gated potassium channel hERG"}, {"measurement": "IC50", "setting": "hERG; read-out: in vitro hERG IC50, test pulse 1 s", "value": 88.4, "unit": "µM"}, {"measurement": "QT interval (in words)", "setting": "[1]", "value": "prolongs the QT interval in rats"}]}]}
